From PubChem BioAssay (NCI)
Where “and” joins values, the source holds several entries; their conditions need not be identical. Identical values can stand only once.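 GI50 marks 50% less growth. TGI: total growth inhibition.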

What was measured:
Experiment in all cases: NCI-60 cell line screen, 384-well format
786-0 renal = system: 786-0 renal
A498 renal = system: A498 renal
A549 NSCLC = system: A549 NSCLC
ACHN renal = system: ACHN renal
BT-549 breast = system: BT-549 breast
CAKI-1 renal = system: CAKI-1 renal
CCRF-CEM leukemia = system: CCRF-CEM leukemia
COLO 205 colon = system: COLO 205 colon
DU-145 prostate = system: DU-145 prostate
EKVX NSCLC = system: EKVX NSCLC
HCC-2998 colon = system: HCC-2998 colon
HCT-116 colon = system: HCT-116 colon
HCT-15 colon = system: HCT-15 colon
HL-60(TB) leukemia = system: HL-60(TB) leukemia
HOP-62 NSCLC = system: HOP-62 NSCLC
HOP-92 NSCLC = system: HOP-92 NSCLC
HS 578T breast = system: HS 578T breast
HT29 colon = system: HT29 colon
IGROV1 ovarian = system: IGROV1 ovarian
K-562 leukemia = system: K-562 leukemia
KM12 colon = system: KM12 colon
LOX IMVI melanoma = system: LOX IMVI melanoma
M14 melanoma = system: M14 melanoma
MALME-3M melanoma = system: MALME-3M melanoma
MCF7 breast = system: MCF7 breast
MDA-MB-231 breast = system: MDA-MB-231 breast
MDA-MB-435 melanoma = system: MDA-MB-435 melanoma
MDA-MB-468 breast = system: MDA-MB-468 breast
MOLT-4 leukemia = system: MOLT-4 leukemia
NCI-H226 lung = system: NCI-H226 lung
NCI-H23 lung = system: NCI-H23 lung
NCI-H322M lung = system: NCI-H322M lung
NCI-H460 NSCLC = system: NCI-H460 NSCLC
NCI-H522 lung = system: NCI-H522 lung
NCI/ADR-RES ovarian = system: NCI/ADR-RES ovarian
OVCAR-3 ovarian = system: OVCAR-3 ovarian
OVCAR-4 ovarian = system: OVCAR-4 ovarian
OVCAR-8 ovarian = system: OVCAR-8 ovarian
PC-3 prostate = system: PC-3 prostate
RPMI-8226 leukemia = system: RPMI-8226 leukemia
RXF 393 renal = system: RXF 393 renal
SF-268 CNS = system: SF-268 CNS
SF-295 CNS = system: SF-295 CNS
SF-539 CNS = system: SF-539 CNS
SK-MEL-28 melanoma = system: SK-MEL-28 melanoma
SK-MEL-5 melanoma = system: SK-MEL-5 melanoma
SK-OV-3 ovarian = system: SK-OV-3 ovarian
SN12C renal = system: SN12C renal
SNB-19 CNS = system: SNB-19 CNS
SNB-75 CNS = system: SNB-75 CNS
SR leukemia = system: SR leukemia
SW-620 colon = system: SW-620 colon
T-47D breast = system: T-47D breast
TK-10 renal = system: TK-10 renal
U251 glioblastoma = system: U251 glioblastoma
UACC-257 melanoma = system: UACC-257 melanoma
UACC-62 melanoma = system: UACC-62 melanoma
UO-31 renal = system: UO-31 renal

Cc1cc(C(=O)NC(CCC(=O)O)C(=O)O)sc1CCC1CNc2nc(N)[nH]c(=O)c2C1 (stereo unspecified)
GI50 ([…]-0 renal): < 10 nM
TGI (786-0 renal): < 10 nM
GI50 (A498 renal): < 10 nM
TGI (A498 renal): 11.3 nM and 25.3 nM
GI50 (A549 NSCLC): 20.1 nM and 24.2 nM
TGI (A549 NSCLC): 42.8 nM and 61 nM
GI50 (ACHN renal): < 10 nM and 19.6 nM
TGI (ACHN renal): < 10 nM and 43.1 nM
GI50 (BT-549 breast): 19.3 nM and 18.2 nM
TGI (BT-549 breast): 37.5 nM and 36.4 nM
GI50 (CAKI-1 renal): < 10 nM
TGI (CAKI-1 renal): < 10 nM
GI50 (CCRF-CEM leukemia): < 10 nM
TGI (CCRF-CEM leukemia): 11.8 nM and 18.6 nM
GI50 (COLO 205 colon): 28.5 nM and 29.7 nM
TGI (COLO 205 colon): 81.6 nM and 141 nM
GI50 (DU-145 prostate): < 10 nM
TGI (DU-145 prostate): < 10 nM and 29.4 nM
GI50 (EKVX NSCLC): 12 nM and 17.1 nM
TGI (EKVX NSCLC): 28.8 nM and 36.1 nM
GI50 (HCC-2998 colon): 22.4 nM and 51.4 nM
TGI (HCC-2998 colon): 77.2 nM and 378 nM
GI50 (HCT-116 colon): < 10 nM and 15.9 nM
TGI (HCT-116 colon): 24.8 nM and 39.8 nM
GI50 (HCT-15 colon): 25 nM and 31.4 nM
TGI (HCT-15 colon): 73.3 nM and 158 nM
GI50 (HL-60(TB) leukemia): < 10 nM
TGI (HL-60(TB) leukemia): < 10 nM and 14.1 nM
GI50 (HOP-62 NSCLC): 18.2 nM
TGI (HOP-62 NSCLC): 34.6 nM and 35.8 nM
GI50 (HOP-92 NSCLC): < 10 nM
TGI (HOP-92 NSCLC): < 10 nM and 14.9 nM
GI50 (HS 578T breast): 22 nM and 25.9 nM
TGI (HS 578T breast): 60.1 nM and 107 nM
GI50 (HT29 colon): < 10 nM and 17 nM
TGI (HT29 colon): 28.5 nM and 46.4 nM
GI50 (IGROV1 ovarian): 19.7 nM and 20.3 nM
TGI (IGROV1 ovarian): 40.9 nM and 43.8 nM
GI50 (K-562 leukemia): < 10 nM
TGI (K-562 leukemia): < 10 nM
GI50 (KM12 colon): 25.6 nM and 28.7 nM
TGI (KM12 colon): 97.6 nM and 196 nM
GI50 (LOX IMVI melanoma): 19.4 nM and 20 nM
TGI (LOX IMVI melanoma): 40.7 nM and 44.4 nM
GI50 (M14 melanoma): < 10 nM
TGI (M14 melanoma): < 10 nM and 22.8 nM
GI50 (MALME-3M melanoma): 16 nM and 19.8 nM
TGI (MALME-3M melanoma): 35.8 nM and 41.1 nM
GI50 (MCF7 breast): < 10 nM and 17.5 nM
TGI (MCF7 breast): 28 nM and 47.7 nM
GI50 (MDA-MB-231 breast): 388 nM and 1680 nM
TGI (MDA-MB-231 breast): 1430 nM and 3460 nM
GI50 (MDA-MB-435 melanoma): 17.3 nM and 16.7 nM
TGI (MDA-MB-435 melanoma): 38.2 nM and 38.7 nM
GI50 (MDA-MB-468 breast): 17.5 nM and 17.6 nM
TGI (MDA-MB-468 breast): 33.9 nM and 37.5 nM
GI50 (MOLT-4 leukemia): < 10 nM
TGI (MOLT-4 leukemia): 12.8 nM and 16.8 nM
GI50 (NCI-H226 lung): 24.2 nM and 25.8 nM
TGI (NCI-H226 lung): 59.1 nM and 75.1 nM
GI50 (NCI-H23 lung): 29 nM and 150 nM
TGI (NCI-H23 lung): 85.4 nM and 401 nM
GI50 (NCI-H322M lung): 17.8 nM and 20.2 nM
TGI (NCI-H322M lung): 37 nM and 43.5 nM
GI50 (NCI-H460 NSCLC): < 10 nM and 10.9 nM
TGI (NCI-H460 NSCLC): > 100000 nM
GI50 (NCI-H522 lung): < 10 nM and 17.6 nM
TGI (NCI-H522 lung): 18.7 nM and 34.3 nM
GI50 (NCI/ADR-RES ovarian): 19 nM and 17.5 nM
TGI (NCI/ADR-RES ovarian): 35.6 nM and 34 nM
GI50 (OVCAR-3 ovarian): 21.7 nM and 29 nM
TGI (OVCAR-3 ovarian): 53.9 nM and 82.6 nM
GI50 (OVCAR-4 ovarian): 20.5 nM and 22 nM
TGI (OVCAR-4 ovarian): 88.1 nM and 70.7 nM
GI50 (OVCAR-8 ovarian): < 10 nM
TGI (OVCAR-8 ovarian): < 10 nM and 11.6 nM
GI50 (PC-3 prostate): < 10 nM
TGI (PC-3 prostate): < 10 nM
GI50 (RPMI-8226 leukemia): 17.7 nM and 17.1 nM
TGI (RPMI-8226 leukemia): 35.4 nM and 36 nM
GI50 (RXF 393 renal): < 10 nM
TGI (RXF 393 renal): < 10 nM
GI50 (SF-268 CNS): < 10 nM
TGI (SF-268 CNS): < 10 nM and 18.7 nM
GI50 (SF-295 CNS): 18.4 nM and 18.6 nM
TGI (SF-295 CNS): 35.4 nM and 36.3 nM
GI50 (SF-539 CNS): < 10 nM
TGI (SF-539 CNS): < 10 nM and 20.5 nM
GI50 (SK-MEL-28 melanoma): 13.2 nM and 16.9 nM
TGI (SK-MEL-28 melanoma): 29.6 nM and 34.7 nM
GI50 (SK-MEL-5 melanoma): 24.5 nM and 33.3 nM
TGI (SK-MEL-5 melanoma): 91.6 nM and 202 nM
GI50 (SK-OV-3 ovarian): < 10 nM
TGI (SK-OV-3 ovarian): < 10 nM
GI50 (SN12C renal): < 10 nM
TGI (SN12C renal): < 10 nM and 23.4 nM
GI50 (SNB-19 CNS): < 10 nM and 13 nM
TGI (SNB-19 CNS): < 10 nM and 30.1 nM
GI50 (SNB-75 CNS): < 10 nM
TGI (SNB-75 CNS): < 10 nM and 14.3 nM
GI50 (SR leukemia): > 100000 nM
TGI (SR leukemia): > 100000 nM
GI50 (SW-620 colon): < 10 nM and 13.3 nM
TGI (SW-620 colon): 21.1 nM and 35.6 nM
GI50 (T-47D breast): 23.8 nM and 30.3 nM
TGI (T-47D breast): > 100000 nM
GI50 (TK-10 renal): < 10 nM
TGI (TK-10 renal): < 10 nM
GI50 (U251 glioblastoma): < 10 nM and 16.4 nM
TGI (U251 glioblastoma): 22.9 nM and 33.5 nM
GI50 (UACC-257 melanoma): 12.9 nM and 18.3 nM
TGI (UACC-257 melanoma): 36.5 nM and 46.9 nM
GI50 (UACC-62 melanoma): 11.3 nM and 25.6 nM
TGI (UACC-62 melanoma): 59.4 nM and 75.1 nM
GI50 (UO-31 renal): < 10 nM and 18.7 nM
TGI (UO-31 renal): < 10 nM and 39.1 nM
